Source: patent US20250205242A1, “CDK7 INHIBITORS FOR ANTIVIRAL TREATMENT” (QURIENT CO., LTD., priority 2022, published 2025)

Tests used:
[1] = system: ganciclovir (GCV)-resistant HCMV strain ADP169-GFP314; assay: HCMV-GFP-based antiviral assay, ganciclovir-resistant strain; type: cell-based, human cytomegalovirus
Method: A series of laboratory variants of AD169-GFP virus that are resistant to GCV was generated. HFF were infected in 12-well plates at a multiplicity of infection (MOI) of 0.002 and incubated with […] Ganciclovir. GFP expression in infected cells was monitored microscopically, and the supernatants from the positive wells were transferred to fresh cells weekly. Thereby Ganciclovir concentrations were increased stepwise (a […] increase at each step) up to the point where total virus replication became critical and resistant virus was grown in individual wells. Using supernatants from these wells, two rounds of plaque purifications were performed in HFF. Finally, Ganciclovir-resistant viral clones (AD169-GFP314) which were able to replicate in the presence of […] GCV were isolated.
HFF were cultured to 90% confluency in 12-well plates and used for infection with AD169-GFP HCMV-virus at a tissue culture infective dose of 0.5 (GFP-TCID50 0.5, referring to an MOI of 0.002 as determined by plaque assay titration). Virus inoculation was performed for 90 min at 37° C. with occasional shaking before virus was removed and the cell layers were rinsed with phosphate-buffered saline (PBS). Then infected cell layers were incubated with 2.5 ml of MEM containing 5% (vol/vol) fetal calf serum with or without a dilution of one of the respective test compounds. Infected cells were incubated at 37° C. under a 5% CO2 atmosphere for 7 days. For lysis, […] of lysis buffer (25 mM Tris [pH 7.8], 2 mM dithiothreitol [DTT], 2 mM trans-1,2-diaminocyclohexane-N,N,N9,N9-tetraacetic acid, 1% Triton X-100, 10% glycerol) was added to each well and incubated for 10 min at 37° C., followed by a 30-min incubation at room temperature on a shaker. Lysates were centrifuged for 5 min at 15,000 rpm in an Eppendorf centrifuge to remove cell debris. […] The […] of compounds against virus replication was determined by EC50 (50% effective concentration).

HCMV strain AD169-GFP = assay: HCMV-GFP-based antiviral assay in HFF; type: cell-based, human cytomegalovirus
HPV11 = assay: HPV genome replicon assay (NanoLuc) in C-33 A cells, HPV11; type: cell-based, Human Papilloma Virus; settings: reference compound; value within the prescribed range
Text: C-33 A, […] were obtained from ATCC and maintained in standard growth medium of MEM with Earl's salts supplemented with 10% FBS (Hyclone, Inc. Logan UT), L-glutamine, penicillin, and gentamycin.
HPV genome replicon assay was developed and expresses the essential E1 and E2 proteins from the native promoter. The E2 origin binding protein interacts with the virus origin of replication and recruits the E1 replicative helicase which unwinds the DNA and helps to recruit the cellular DNA replication machinery (including DNA polymerases, type I and type II topoisomerases, DNA ligase, single-stranded DNA binding proteins, proliferating cell nuclear antigen). The replication complex then drives the amplification of the replicon which can be assessed by the expression of a destabilized NanoLuc reporter gene carried on the replicon. In the HPV11 assay, the replicon (pMP619) is transfected into C-33 A cells grown as monolayers in 384-well plates. At 48 h post transfection, the enzymatic activity of the destabilized NanoLuc reporter is assessed with NanoGlo reagent. […] Analysis of HPV genome replication in specific types of HPV, such as HPV6, HPV11, or HPV31 is performed with plasmid systems that utilize each HPV type.

| Structure (SMILES) | antiviral effectiveness against viruses resistant to nucleobase analogue drugs [1] | antiviral effectiveness against non-resistant viruses (HCMV strain AD169-GFP) | EC50 (HPV11) [µM] |
| --- | --- | --- | --- |
| C=C(F)C(=O)Nc1ccc2c(-c3ccccc3CNc3nc(N[C@@H]4CCC(C)(C)NC4)nc4c(C(C)C)cnn34)nccc2c1 [Compound 174] | highly effective | highly effective |  |
| Nc1nc2c(ncn2CCOCP(=O)(O)O)c(=O)[nH]1 [PMEG] |  |  | 2 to 9.2 |
| C=C(F)C(=O)Nc1ccc2c(-c3ccccc3CNc3nc(OC4CCC(C)(C)NC4)nc4c(C(C)C)cnn34)nccc2c1 (stereo not shown) [Compound 177] | highly effective | highly effective |  |
| C=C(F)C(=O)Nc1ccc2c(-c3ccccc3CNc3nc(NC4CCC(C)(C)NC4)nc4c(C(C)C)cnn34)nccc2c1 (stereo not shown) [Compound 175] | highly effective | highly effective |  |
